Experimental data from US10080804B2, “Conjugate with target-finding ligand and use thereof” (ethris GmbH, priority 2009, dated 2018).

What was measured:
human IP1 receptor = target: T1, human IP1 receptor (Homo sapiens, UniProt P43119); assay: Inhibition of FLUO-BSA-ILO receptor binding/uptake with CAY10449 on 16HBE14o-cells (FACS); format: cell-based; conditions: 25 nM conjugate, increasing CAY10449 (15, 30, 150 μM) or excess of unconjugated ILO
T1 construct: The expression of IP1 receptor in human alveolar (A549) and bronchial (BEAS-2B, 16HBE14o-) epithelial cells was confirmed by Western blot analysis; endogenous in cells; host or cells: 16HBE14o- human bronchial epithelial cells
Protocol: 24-well plates were prepared as described above. CAY10449 was diluted in MEM to concentrations of 15 μM, 30 μM and 150 μM, and the mixtures were incubated at 37° C. for 15 min. […] The binding/uptake was measured using FACS.

[1] = physiological environment, i.e. in the blood; cited from earlier work
16HBE14o-cells [2] = assay: Confocal laser scanning microscopy of surface binding and intracellular uptake; format: cell-based, human; conditions: 0.5 μM conjugate
Protocol: (§1) For the FACS measurement experiments, 100 000 cells/well were seeded in 24-well plates (TPP, Trasadingen, Switzerland) 24 hours before adding the conjugates. […] After the cells had been washed with PBS, the cells were removed from the wells by treatment with trypsin, and the FACS measurements were carried out using a Beckton-Dickinson FACS scan (San Jose, USA). For the confocal laser scanning microscopy, the experiments were carried out on slides with 4 chambers from BD Falcon Culture (BD Biosciences San Jose, USA) with 25 000 cells per chamber. The incubation of FLUO-BSA-ILO and FLUO-BSA was performed as described above. The cells were washed and fixed in 4% paraformaldehyde, and the nuclei were subsequently stained with 0.33 μM DAPI (4′,6-diamidino-2-phenylindole) and F-actin with Alexafluor® 568 Falloidin (Invitrogen GmbH, Karlsruhe, Germany) using standard protocols. The slides were covered with medium (Vectashield, Vector Laboratories Inc., Berlingame, USA), and images were taken with a confocal laser scanning microscope (Leica, Solms, Germany).

H441 cells = assay: FACS receptor binding/uptake of fluorescein-BSA conjugates; format: cell-based, human; conditions: 0.5 μM conjugate, 4 h, 37° C.
Protocol: as §1

16HBE14o-cells [3] = assay: as above; format: cell-based, human; conditions: 0.5 μM conjugate, 4 h, 37° C.
Protocol: as §1

A549 cells = assay: as above; format: cell-based, human; conditions: 0.5 μM conjugate, 4 h, 37° C.
Protocol: as §1

BEAS-2B cells = assay: as above; format: cell-based, human; conditions: 0.5 μM conjugate, 4 h, 37° C.
Protocol: as §1

T1 sequence (P43119 whole entry): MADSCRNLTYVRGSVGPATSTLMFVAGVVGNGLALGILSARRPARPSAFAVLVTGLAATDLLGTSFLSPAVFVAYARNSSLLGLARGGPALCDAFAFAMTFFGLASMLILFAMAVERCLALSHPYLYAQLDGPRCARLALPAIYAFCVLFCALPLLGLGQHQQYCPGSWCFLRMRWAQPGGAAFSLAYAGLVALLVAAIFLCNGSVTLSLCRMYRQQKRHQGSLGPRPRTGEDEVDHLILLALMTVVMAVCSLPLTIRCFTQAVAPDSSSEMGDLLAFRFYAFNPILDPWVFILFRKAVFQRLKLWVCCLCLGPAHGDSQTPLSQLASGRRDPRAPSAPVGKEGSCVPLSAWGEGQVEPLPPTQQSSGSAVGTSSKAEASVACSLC

Row | Compound | effect of competitor on number of fluorescence-positive cells and MFI (human IP1 receptor) | half-life [1] | cell surface binding and intracellular uptake (confocal microscopy) (16HBE14o-cells [2]) | positive cells (H441) (H441 cells) [%] | positive 16HBE14o-cells (16HBE14o-cells [3]) | positive A549 cells (A549 cells) | positive cells (BEAS-2B) (BEAS-2B cells) [%]
1 | CC(C)Oc1ccc(Cc2ccc(NC3=NCCN3)cc2)cc1 [CAY10449] | significant dose-dependent reduction | – | – | – | – | – | –
2 | CCCCC[C@H](O)/C=C/[C@@H]1[C@H]2C/C(=C/CCCC(=O)O)O[C@H]2C[C@H]1O [prostacyclin] | – | only a few minutes | – | – | – | – | –
3 | FLUO-BSA: fluorescein-labeled bovine serum albumin, control without ligand | no activity | – | no uptake | 9.1±1.9 | unspecific background binding | unspecific background binding | 13.7±1.2
